{"source": "patent US20260137696A1", "about": "“Compositions Comprising an Inhibitor of Galectin-3” (University of Liverpool, priority 2023, published 2026)", "key": {"SW620^Gal3+ cells": {"test_system": "SW620^Gal3+ cells", "assay": "Tumour cell adhesion to laminin", "type": "cell-based, human", "conditions": "10 μM; Galectin-3-expressing SW620^Gal3+ cells", "experimental": "(§1) White wall 96-well plates were coated with laminin (20 μg/ml) in coating buffer (15 mM Na2CO3 17 mM NaHCO3 pH 9.6) overnight at room temperature. ZsGreen- and luciferase-transfected SW620Gal3+, SW620Gal-3, or ACA19+ cells (5×10^5 cells/ml) were pre-incubated without or with 10 μM of the compound of Formula I or the compound of Formula II for 10 minutes before added into laminin-coated plates for 30 min at 37° C. The plates were washed twice with PBS before lysed by PLB for 5 min on a shaker. Luciferase Assay Reagent was then added before luminescence was measured using Tecan Infinite F200 microplate reader.\n(§2) Nanty-six well plates were coated with matrix protein laminin (20 μg/ml) in coating buffer overnight. ZsGreen- and luciferase-labelled SW620Gal3− and SW620Gal3+ cells (5×10^5 cells/ml) were mixed without or with 10 μM inhibitors for 15 minutes before introduced to the laminin-coated plates for 30 minutes at 37° C. The plates were washed twice with PBS and the bound cells were lysed by Passive lysis buffer. After addition of Luciferase Assay Reagent (LAR) for 10 minutes, the luminescence intensity in the wells was measured by a microplate reader."}, "SW620^Gal3− cells": {"test_system": "SW620^Gal3− cells", "assay": "Tumour cell adhesion to laminin", "type": "cell-based, human", "conditions": "10 μM; Galectin-3-suppressed SW620^Gal3− cells", "experimental": "as §1, §2"}, "Galectin-3": {"target": "T1, Galectin-3 (Homo sapiens, UniProt P17931)", "T1 construct": "made in house; host or cells: E. coli", "T1 sequence (P17931 whole entry)": "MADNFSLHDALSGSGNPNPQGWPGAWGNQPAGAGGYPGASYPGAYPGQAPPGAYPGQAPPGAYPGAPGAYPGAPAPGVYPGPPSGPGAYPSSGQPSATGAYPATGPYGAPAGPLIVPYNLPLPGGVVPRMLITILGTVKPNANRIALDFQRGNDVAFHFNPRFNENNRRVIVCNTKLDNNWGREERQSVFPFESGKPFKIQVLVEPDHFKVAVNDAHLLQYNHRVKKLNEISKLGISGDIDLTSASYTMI", "assay": "Binding affinity to Galectin-3 by Tryptophan Fluorescence Spectroscopy (TFS)", "conditions": "Galectin-3 10 μM, titration 0 to 224 μM", "experimental": "The binding affinity of the compounds of Formula I and Formula II to Galectin-3 is assessed by Tryptophan Fluorescence Spectroscopy (TFS). The compounds of Formula I and Formula II bind to Galectin-3 with binding affinity (KD) at low μM;\nFIG. 2A and FIG. 2B show analysis of the binding affinity of the compounds of Formula I and Formula II to Galectin-3. The binding affinity of the compounds of Formula I and Formula II to Galectin-3 is assessed by Tryptophan Fluorescence Spectroscopy (TFS). The compounds of Formula I and Formula II bind to Galectin-3 with binding affinity (KD) at low μM.\nThe binding affinity of the inhibitors to Galectin-3 was determined by Intrinsic Tryptophan Fluorescence Spectroscopy (TFS) exactly as we described recently (Sindrewicz, P., et al., Intrinsic tryptophan fluorescence spectroscopy reliably determines galectin-ligand interactions. Sci Rep, 2019. 9(1): p. 11851, herein incorporated by reference). The Galectin-3 concentration used was 10 μM and the inhibitor titration concentrations were from 0 to 224 μM. DMSO/control buffer (PBS with 2 mM EDTA) titrations were performed and used for background subtraction.\nThe binding affinities of the compounds of Formula I and compounds of Formula II to Galectin-3 was determined by Tryptophan Fluorescence spectroscopy (TFS) [Sindrewicz, P., et al., Intrinsic tryptophan fluorescence spectroscopy reliably determines galectin-ligand interactions. Scientific Reports, 2019. 9(1): p. 11851, herein incorporated by reference] The Galectin-3 concentration used was 10 μM and the compounds of Formula I and compounds of Formula II titration concentrations were from 0 to 224 μM. DMSO/control buffer (PBS with 2 mM EDTA) titrations were performed and used for background subtraction."}, "PANC1 cell": {"test_system": "PANC1 cell", "assay": "Pancreatic cancer cell adhesion to basement matrix", "type": "cell-based, human", "conditions": "for adhesion of control PANC1 cells: non-transfected cells (FIG. 16C, 16D); for PANC1 cell adhesion to matrix: different concentrations (FIG. 16A, 16B)", "experimental": "(§3) Nanty-six well plates were coated with 50 μl Matrigel (1:30 diluted in PBS) at 37° C. for 1 hour. Cancer cells, pre-labelled with fluorescent die DiI at 37° C. for 20 minutes, were washed twice with PBS and resuspended into 3×10^4 cells/ml in serum-free medium. The matrix-coated 96-well plates were washed twice with PBS before introduction of […] cell suspension with different concentrations of the inhibitors or PBS/DMSO (control) for 1 hour at 37° C. The plates were washed twice with PBS before three randomly selected Field of Views (FOVs) were recorded by fluorescence microscope and number of adhesion cells were quantified by Image J."}, "SW620 cells": {"test_system": "SW620 cells", "assay": "Cancer cell invasion through HUVECs (transwell)", "type": "cell-based, human", "conditions": "10 μM, transwells", "experimental": "Invasion of human colon cancer SW620 cells through human umbilical vein endothelial cells (HUVECs) was assessed in transwells in the absence or presence of the compounds of Formula I and Formula II (10 μM).\nHUVECs were seeded (1.5×10^4 cells/well) into trans-well insert in 24-well plate and cultured for three days to allow tight monolayer formation (TEER reading >800 Ω/cm2). The integrity of HUVEC monolayer was confirmed by measuring TEER and only monolayers with TEER reading >800 Ω/cm^2 were used for the invasion assay. The HUVEC monolayers were washed with PBS before introduction of ZsGreen- and luciferase transfected SW620Gal3+, SW620Gal-3, or ACA19+ cells (5×10^5 cells/ml) in serum-free DMEM with 0.5 mg/ml BSA, without or with 10 μM the compound of Formula I or the compound of Formula II. ZsGreen- and luciferase-labelled SW620Gal3− and SW620Gal3+ cells (5×10^5 cells/ml) were mixed without or with 10 μM inhibitors for 15 minutes before introduced to the HUVEC monolayer in the transwells for 16-18 hours. The cells at the upper side of the trans-well inserts were gently removed with a cotton swab and the inserts were washed twice with PBS. The cells that migrated to the bottom side of the trans-wells were lysed with PLB buffer for 10 min. The lyse was introduced with Luciferase Assay Reagent for 5 min before luminescence was measured. […]"}, "H1975 cell": {"test_system": "H1975 cell", "assay": "Lung cancer cell adhesion to basement matrix", "type": "cell-based, human", "conditions": "for IC50: Homo sapiens, NCI-H1975; for H1975 cell adhesion to matrix: different concentrations", "experimental": "as §3"}}, "note": "Entries after “also recorded” stand apart in the source; their conditions may differ."}
{"smiles": "C[C@H]1COc2c(N3CCN(C)CC3)c(F)cc3c(=O)c(C(=O)NNc4cccc(N)c4)cn1c23", "note": "[Formula II]", "values": [{"measurement": "adhesion to matrix protein component laminin", "setting": "SW620^Gal3+ cells", "result": "significantly inhibits"}, {"measurement": "adhesion to matrix protein component laminin", "setting": "SW620^Gal3− cells", "result": "much reduced effect"}, {"measurement": "Kd", "setting": "Galectin-3", "result": 30, "unit": "µM"}, {"measurement": "binding affinity (Kd) to Galectin-3", "setting": "Galectin-3", "result": "low μM"}, {"measurement": "adhesion of control PANC1 cells", "setting": "PANC1 cell", "result": "significant reduction; also recorded: significant inhibition"}, {"measurement": "PANC1 cell adhesion to matrix", "setting": "PANC1 cell", "result": "dose-dependently inhibits"}, {"measurement": "SW620 cell invasion through HUVECs", "setting": "SW620 cells", "result": "significant inhibits"}, {"measurement": "IC50", "setting": "H1975 cell", "result": "~10", "unit": "µM"}, {"measurement": "H1975 cell adhesion to matrix", "setting": "H1975 cell", "result": "dose-dependently inhibits"}]}
{"smiles": "C[C@H]1COc2c(N3CCN(C)CC3)c(F)cc3c(=O)c(C(=O)NNc4ccc(N)cc4)cn1c23", "note": "[Formula I]", "values": [{"measurement": "adhesion to matrix protein component laminin", "setting": "SW620^Gal3+ cells", "result": "significantly inhibits"}, {"measurement": "adhesion to matrix protein component laminin", "setting": "SW620^Gal3− cells", "result": "much reduced effect"}, {"measurement": "Kd", "setting": "Galectin-3", "result": 18, "unit": "µM"}, {"measurement": "binding affinity (Kd) to Galectin-3", "setting": "Galectin-3", "result": "low μM"}, {"measurement": "adhesion of control PANC1 cells", "setting": "PANC1 cell", "result": "significant reduction; also recorded: significant inhibition"}, {"measurement": "PANC1 cell adhesion to matrix", "setting": "PANC1 cell", "result": "dose-dependently inhibits"}, {"measurement": "SW620 cell invasion through HUVECs", "setting": "SW620 cells", "result": "significant inhibits"}, {"measurement": "IC50", "setting": "H1975 cell", "result": "> 20", "unit": "µM"}, {"measurement": "H1975 cell adhesion to matrix", "setting": "H1975 cell", "result": "dose-dependently inhibits"}]}
